Assays:
Chilo suppressalis [1] = experiment: Insecticidal activity against Chilo suppressalis (rice stem borer) third-instar larvae assessed as mortality at pI50 after 5 days in presence of piperonyl butoxide; format: functional; design: concentration or dose not given beside the values
[2] = 1-octanol-water partition co-efficient, log P of the compound; format: physicochemical
Chilo suppressalis [3] = experiment: Insecticidal activity against Chilo suppressalis (rice stem borer) third-instar larvae assessed as mortality after 5 days in presence of piperonyl butoxide; format: functional
Chilo suppressalis [4] = experiment: Inhibition of chitin synthesis in 20-hydroxyecdysone-stimulated Chilo suppressalis (rice stem borer) larval integument assessed as inhibition of N-acetyl-{1-14C]-glucosamine at pI50 after 72 hr by liquid scintillation counting; format: functional
Chilo suppressalis [5] = experiment: Insecticidal activity against Chilo suppressalis (rice stem borer) third-instar larvae assessed as mortality after 5 days; format: functional
Chilo suppressalis [6] = experiment: Insecticidal activity against Chilo suppressalis (rice stem borer) third-instar larvae assessed as mortality at pI50 after 5 days; format: functional

Row | SMILES | mortality (Chilo suppressalis [1]) [%] | logP [2] | pLD50 (Chilo suppressalis [3]) | inhibition (INH) (Chilo suppressalis [4]) [%] | pLD50 (Chilo suppressalis [5]) | mortality (Chilo suppressalis [6]) [%]
1 | COc1cccc(OC)c1C(=O)Nc1nnc(-c2ccc(F)cc2)s1 | 14 | 3.5 | <5 |  |  | 
2 | COc1ccc(-c2nnc(NC(=O)c3c(OC)cccc3OC)s2)cc1 | 0 | 3.56 | <5 |  |  | 
3 | O=C(Nc1nnc(-c2ccc(Cl)cc2)s1)c1ccccc1 |  |  |  | 10 | <5.6 | 0
4 | O=C(Nc1nnc(-c2ccc(Cl)cc2)s1)c1c(F)cccc1F |  |  |  | 42 | <4.6 | 0
5 | O=C(Nc1nnc(-c2ccc(Cl)cc2)s1)c1c(Cl)cccc1Cl |  |  |  |  | <5 | 5
6 | Cc1cccc(C)c1C(=O)Nc1nnc(-c2ccc(Cl)cc2)s1 |  |  |  |  | 5.48 | 
7 | COc1cccc(OC)c1C(=O)Nc1nnc(-c2ccc(Cl)cc2)s1 |  | 3.96 | <5.96 |  | 5.96 | 
8 | O=C(Nc1nnc(-c2ccc(Cl)cc2)s1)c1ccccc1F |  |  |  |  | <4.6 | 0
9 | O=C(Nc1nnc(-c2ccc(Cl)cc2)s1)c1ccccc1Cl |  |  |  | 37 | <4.6 | 41
10 | O=C(Nc1nnc(-c2ccc(Cl)cc2)s1)c1ccccc1Br |  |  |  | 32 | <4.6 | 0
11 | O=C(Nc1nnc(-c2ccc(Cl)cc2)s1)c1ccccc1I |  |  |  | 17 | <4.6 | 5
12 | O=C(Nc1nnc(-c2ccc(Cl)cc2)s1)c1ccccc1C(F)(F)F |  |  |  | 7 | <4.6 | 0
13 | O=C(Nc1nnc(-c2ccc(Cl)cc2)s1)c1ccccc1[N+](=O)[O-] |  |  |  | 0 | <4.6 | 0
14 | Cc1ccccc1C(=O)Nc1nnc(-c2ccc(Cl)cc2)s1 |  |  |  |  | <4.6 | 0
15 | COc1ccccc1C(=O)Nc1nnc(-c2ccc(Cl)cc2)s1 |  |  |  |  | 5.96 | 
16 | CCOc1ccccc1C(=O)Nc1nnc(-c2ccc(Cl)cc2)s1 |  |  |  | 23 | <5.6 | 10
17 | CCN(CC)c1ccccc1C(=O)Nc1nnc(-c2ccc(Cl)cc2)s1 |  |  |  | 8 | <5 | 0
18 | COc1cccc(OC)c1C(=O)Nc1nnc(-c2ccccc2)s1 | 0 | 3.5 | <5 |  |  | 
19 | COc1cccc(OC)c1C(=O)Nc1nnc(-c2ccc(C)cc2)s1 |  | 3.85 | 5 |  |  | 
20 | COc1cccc(OC)c1C(=O)Nc1nnc(-c2ccc(Br)cc2)s1 |  | 3.96 | 5.57 |  |  | 
21 | COc1cccc(OC)c1C(=O)Nc1nnc(-c2ccc([N+](=O)[O-])cc2)s1 | 0 | 2.54 | <5 |  |  | 
22 | COc1cccc(OC)c1C(=O)Nc1nnc(-c2ccc(C#N)cc2)s1 |  | 3.14 |  |  |  | 
23 | CCOc1ccc(-c2nnc(NC(=O)c3c(OC)cccc3OC)s2)cc1 | 6 | 3.75 | <5 |  |  | 
24 | O=C(NC(=O)c1c(F)cccc1F)Nc1ccc(Cl)cc1 [DIFLUBENZURON] |  |  | 6.64 |  |  | 
